# According to publication PMC8904451, “Novel chalcone-derived pyrazoles as potential therapeutic agents for the treatment of non-small cell lung cancer” (Scientific Reports, 2022):
# Experiments:
# Format in all cases: cell-based, human
# [1] = tested on: caspase-3/7 in H460 cells; assay: Caspase-3/7 activation by flow cytometry, H460; settings: IC90
# Description: To explain the type of cell death that cancer cells undergo after treatment with PCH-1, the ability of the compound to activate caspases 3–7 was determined by flow cytometry. […] The most pronounced activation of caspase 3 occurred equally in A-549 and H226 cell lines after 48 h of treatment and was sevenfold greater than that in the vehicle.
# Cells were seeded onto tissue culture plates and allowed to attach for 24 h. Next, the cells were treated with PCH-1 or Etoposide at IC90 concentration for 6, 24, and 48 h. After incubation, the cells were harvested by trypsinization, rinsed twice with PBS, and stained with Annexin V Alexa Fluor™ 488 conjugate (Thermo Fisher, #A13201) for apoptosis assay and with CellEvent™ Caspase-3/7 Green Flow Cytometry Assay Kit (Thermo Fisher, #C10427) for caspase-3/7 activation according to the manufacturer’s protocols. The analysis was performed with Guava EasyCyte 8 cell sorter (Merck Millipore) and FlowJo software v10. Each experiment was repeated independently three times.
# [2] = tested on: A-549, H226, and H460 cells; assay: Cell cycle distribution by flow cytometry, unsynchronized cells; settings: IC90, 24 h, vs control
# Description: Promising antiproliferative properties of PCH-1 led us to further investigate the effect of this compound on cell cycle distribution. Therefore, cell cycle progression was analyzed by quantifying DNA content using flow cytometry. […] To thoroughly analyze the course of the cycle, A-549 cells were synchronized with a double-thymidine block in the G1 phase and treated with IC90 concentration of PCH-1 for the indicated time. Slight alterations of the division cycle were visible after 2 h of incubation with the compound.
# Cells were seeded onto tissue culture plates and allowed to attach for 24 h. Unsynchronized cells were treated with PCH-1 or Etoposide at IC90 concentration for 24 and 48 h, while synchronized cells were treated with PCH-1 or Etoposide at IC90 concentration for 2, 4, 6, 8, and 10 h. Synchronization of the cells was performed as described previously by Chen et al.[77]. Next, the cells were trypsinized, fixed in ice-cold 75% ethanol, and stored overnight at − 20 °C. After centrifugation, the cells were rinsed with PBS and stained with […] PI (Sigma-Aldrich) and […] RNaseA (Thermo Fisher) in PBS for 30 min at RT. The distribution of the cells in different phases of the cell cycle was determined by flow cytometry (Guava EasyCyte 8 cell sorter, Merck Millipore) and FlowJo software v10. Each experiment was repeated independently three times.
# A-549 cells = assay: Western blot of apoptotic and EMT-related proteins
# Description: To investigate the potential molecular mechanisms responsible for PCH-1-induced apoptosis in A-549 cells, we measured the expression of apoptosis-related proteins by western blot analysis. […] Next, we determined the role of the antiapoptotic protein Bcl-2 as well as the proapoptotic proteins Bax and Bid in PCH-1-induced cell death in A-549 cells. […] Additionally, we observed Bid cleavage (48 h: *p < 0.01), which was noted as a reduction in full-length Bid protein.
# Epithelial-mesenchymal transition (EMT) plays a crucial role in tumorigenesis by promoting cell motility, migration, and metastasis. Thus, we examined the expression of proteins involved in the EMT process by western blot assays. […] The activity of N-cadherin in A-549 cells was reduced by 45% at 24 h (p = 0.0002) and by 50% at 48 h (p = 0.0002), while vimentin activity was reduced by 43% at 24 h (p = 0.005) and by 46% at 48 h (p = 0.004). Additional PCH-1 inhibited Transforming Growth Factor β1 (TGF-β1) induced mesenchymal-like phenotype in A-549 cells, indicating […] of N-cadherin by 66% at 48 h (p = 0.0003), and another EMT effector β-catenin, which was suppressed by 31% at 24 h (p = 0.0275) and by 66% at 48 h (p = 0.0019).
# Cells (1.5 × 10^6) were cultured in tissue culture plates for overnight attachment. The cells were then incubated with IC90 of PCH-1 or 1% DMSO for 6, 24, and 48 h, or were co-treatment with 2.5 ng/ml TGF-β1 (Sigma-Aldrich), and IC90 of PCH-1 or 1% DMSO for 24, and 48 h. Subsequently, the cells were collected and lysed in Laemmli buffer with a protease inhibitor cocktail (Roche) and phosphatase inhibitors [NaF (5 mM), β-glycerophosphate (5 mM), and Na3VO4 (1 mM)]. The cells were then sonicated in triplicate (10 s, 30% amplitude) and centrifuged at 16,000×g at 12 °C for 15 min. Protein concentrations were determined using the DC Protein Assay Kit (Bio-Rad). For determining total protein content, the cellular extract was separated by 10% or 12% sodium dodecyl sulfate–polyacrylamide gel electrophoresis (SDS-PAGE) and transferred onto a microporous polyvinylidene difluoride (PVDF) membrane (Bio-Rad). After blocking with 5% (w/v) BSA (Sigma-Aldrich) in 1 × TBST (pH 7.4 and 0.1% Tween-20) for 1 h, the membranes were incubated overnight with primary antibodies at 4 °C, followed by horseradish peroxidase-conjugated secondary antibodies for 1 h. All the used antibodies are listed in Table S1 in the supplementary information. The immunoreactive signals were detected using an enhanced chemiluminescence (ECL) detection reagent kit (Thermo Fisher) and a ChemiDoc XRS + Imaging System (Bio-Rad). The band intensity was measured using Image Lab 5.2 software (Bio-Rad).
# [3] = A-549 co-treated with 2.5 ng/ml TGF-β1, IC90, 48 h
compound,measurement,setting,value
"COc1ccc(C2CC(c3cc4c(cc3OC)OCO4)=NN2C(C)=O)cc1 (stereo not shown) [PCH-1, 1-[3-(6-methoxy-2H-1,3-benzodioxol-5-yl)-5-(4-methoxyphenyl)-4,5-dihydro-1H-pyrazol-1-yl]ethan-1-one]","caspase-3/7 activation, increase compared to control, H460",[1]; 6 h,3.15 fold
same,"cells with activated caspase 3/7 vs control, H460",[1]; later exposure,remaining approximately constant
same,cell cycle arrest,[2],induced cell cycle arrest in the G2/M phase
same,Bcl-2 protein level,"A-549 cells; A-549, IC90",not changed
same,Bax protein level,"A-549 cells; A-549, IC90, 6, 24, 48 h",significant increase
same,expression of hTERT,"A-549 cells; A-549, IC90, 24 and 48 h",significantly decreased
same,reduction of N-cadherin,"A-549 cells; A-549, IC90, 24 h",45%
same,reduction of vimentin,"A-549 cells; A-549, IC90, 24 h",43%
same,reduction of N-cadherin,"A-549 cells; A-549, IC90, 48 h",50%
same,reduction of vimentin,"A-549 cells; A-549, IC90, 48 h",46%
same,"suppression of β-catenin, TGF-β1 induced","A-549 cells; A-549 co-treated with 2.5 ng/ml TGF-β1, IC90, 24 h",31%
same,"reduction of N-cadherin, TGF-β1 induced",A-549 cells; [3],66%
same,"suppression of β-catenin, TGF-β1 induced",A-549 cells; [3],66%
